Data from PubChem BioAssay AID328 (DTP/NCI, 2004).
Values joined by “and” are separate entries in the source; they are usually repeats but may differ in a detail not shown here. Equal entries are not always repeated. Inconclusive results and toxic doses are left out.

Test system: BDF1 mice, P388 leukemia ip, median survival T/C
Test: NCI In Vivo Anticancer Drug Screen. Data for tumor model P388 Leukemia (intraperitoneal) in B6D2F1 (BDF1) mice
Details: endpoint: median survival time, higher = longer survival
How it was run: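 Steps: implant the tumour, treat one group with compound and another with vehicle, record survival, then divide treated by control.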

[1] = dose: 50.0 mg/kg/injection, schedule: Q01DX009 (ip), vehicle: saline with Tween-80
[2] = dose: 100.0 mg/kg/injection, schedule: Q01DX009 (ip), vehicle: saline with Tween-80
[3] = dose: 200.0 mg/kg/injection, schedule: Q01DX009 (ip), vehicle: saline with Tween-80
[4] = dose: 100.0 mg/kg/injection, schedule: Q04DX003 (ip), vehicle: saline
[5] = dose: 200.0 mg/kg/injection, schedule: Q04DX003 (ip), vehicle: saline
[6] = dose: 100.0 mg/kg/injection, schedule: Q01DX009 (ip), vehicle: saline
[7] = dose: 200.0 mg/kg/injection, schedule: Q01DX009 (ip), vehicle: saline
[8] = dose: 400.0 mg/kg/injection, schedule: Q04DX003 (ip), vehicle: saline

Compound: COC(C(=O)C(O)C(C)O)C1CC2C=C3C=C(OC4CC(OC5CC(O)C(OC)C(C)O5)C(OC(C)=O)C(C)O4)C(C)C(=O)C3=C(O)C2=C(O)C1OC1CC(OC2CC(OC3CC(C)(O)C(OC(=O)C(C)C)C(C)O3)C(O)C(C)O2)C(O)C(C)O1 (centres undefined)
- T/C (dose: 0.12 mg/kg/injection, schedule: Q01DX001 (ip), vehicle: other): 150 % of control
- T/C (dose: 0.25 mg/kg/injection, schedule: Q01DX001 (ip), vehicle: other): 204 % of control
- T/C (dose: 12.5 micrograms/kg/injection, schedule: Q01DX009 (ip), vehicle: saline): 111 % of control
- T/C (dose: 25.0 micrograms/kg/injection, schedule: Q01DX009 (ip), vehicle: saline): 111 % of control
- T/C (dose: 31.2 micrograms/kg/injection, schedule: Q01DX001 (ip), vehicle: saline): 165 % of control
- T/C (dose: 31.2 micrograms/kg/injection, schedule: Q04DX003 (ip), vehicle: saline): 190 % of control
- T/C (dose: 31.2 micrograms/kg/injection, schedule: Q08DX002 (ip), vehicle: saline): 190 % of control
- T/C (dose: 50.0 micrograms/kg/injection, schedule: Q01DX009 (ip), vehicle: saline): 111 % of control
- T/C (dose: 62.5 micrograms/kg/injection, schedule: Q01DX001 (ip), vehicle: saline): 150 % of control and 195 % of control
- T/C (dose: 62.5 micrograms/kg/injection, schedule: Q08DX002 (ip), vehicle: saline): 210 % of control
- T/C (dose: 100.0 micrograms/kg/injection, schedule: Q01DX009 (ip), vehicle: saline): 111 % of control
- T/C (dose: 125.0 micrograms/kg/injection, schedule: Q01DX001 (ip), vehicle: saline): 230 % of control
- T/C (dose: 125.0 micrograms/kg/injection, schedule: Q08DX002 (ip), vehicle: saline): 185 % of control
- T/C (dose: 250.0 micrograms/kg/injection, schedule: Q01DX001 (ip), vehicle: saline): 240 % of control and 150 % of control
- T/C (dose: 500.0 micrograms/kg/injection, schedule: Q01DX001 (ip), vehicle: saline): 108 % of control
- T/C (dose: 500.0 micrograms/kg/injection, schedule: Q08DX002 (ip), vehicle: saline): 100 % of control

Compound: CCCCC(C)C(=O)CC(SCC)c1ccc(Cl)c(Cl)c1 (centres undefined)
- T/C [1]: 99 % of control
- T/C [2]: 99 % of control
- T/C [3]: 96 % of control

Compound: CC(C)=CCC/C(C)=C\CCl
- T/C (dose: 25.0 mg/kg/injection, schedule: Q01DX009 (ip), vehicle: saline with Tween-80): 105 % of control
- T/C (dose: 37.5 mg/kg/injection, schedule: Q01DX009 (ip), vehicle: saline with Tween-80): 99 % of control
- T/C [1]: 121 % of control
- T/C (dose: 50.0 mg/kg/injection, schedule: Q04DX003 (ip), vehicle: saline with Tween-80): 107 % of control
- T/C (dose: 75.0 mg/kg/injection, schedule: Q01DX009 (ip), vehicle: saline with Tween-80): 122 % of control
- T/C [2]: 105 % of control
- T/C (dose: 100.0 mg/kg/injection, schedule: Q04DX003 (ip), vehicle: saline with Tween-80): 111 % of control

Compound: O=C(CBr)OCCCS(=O)(=O)O
- T/C (dose: 50.0 mg/kg/injection, schedule: Q04DX003 (ip), vehicle: saline): 95 % of control
- T/C [4]: 104 % of control
- T/C [5]: 100 % of control

Compound: CC(=O)OC1CCC2(C)C(CCC3(C)C2CC=C2C4C(C)C(C)CCC4(C)CCC23C)C1(C)C (centres undefined)
- T/C (dose: 100.0 mg/kg/injection, schedule: Q04DX003 (ip), vehicle: Klucel (hydroxypropylcellulose) (HPC)): 100 % of control
- T/C (dose: 200.0 mg/kg/injection, schedule: Q04DX003 (ip), vehicle: Klucel (hydroxypropylcellulose) (HPC)): 100 % of control
- T/C (dose: 400.0 mg/kg/injection, schedule: Q04DX003 (ip), vehicle: Klucel (hydroxypropylcellulose) (HPC)): 90 % of control

Compound: CCSC1(SCC)C(=O)OC2=C(CCCC2)C1N(C)C (centres undefined)
- T/C [1]: 90 % of control
- T/C [2]: 103 % of control
- T/C [3]: 105 % of control

Compound: S=C(S)N1CCN(C(=S)S)CC1
- T/C (dose: 25.0 mg/kg/injection, schedule: Q01DX009 (ip), vehicle: saline): 100 % of control and 104 % of control and 110 % of control
- T/C (dose: 35.0 mg/kg/injection, schedule: Q01DX009 (ip), vehicle: saline): 91 % of control
- T/C (dose: 50.0 mg/kg/injection, schedule: Q01DX009 (ip), vehicle: saline): 95 % of control and 105 % of control
- T/C [6]: 95 % of control
- T/C [7]: 86 % of control

Compound: CC(=O)CC(C)=O.CC(=O)CC(C)=O.C[CH2][Sn][CH2]C
- T/C (dose: 12.5 mg/kg/injection, schedule: Q01DX001 (ip), vehicle: Klucel (hydroxypropylcellulose) (HPC)): 116 % of control

Compound: Cc1ncc([N+](=O)[O-])n1CCSC(Cl)(Cl)Cl
- T/C [5]: 101 % of control
- T/C [8]: 111 % of control

Compound: CC(=O)Nc1cc(C)no1
- T/C [6]: 90 % of control
- T/C [4]: 109 % of control
- T/C [7]: 95 % of control
- T/C [5]: 109 % of control
- T/C (dose: 400.0 mg/kg/injection, schedule: Q01DX009 (ip), vehicle: saline): 100 % of control
- T/C [8]: 104 % of control
